From patent publication US20240279278A1, “NMU RECEPTOR 2 AGONISTS” (Boehringer Ingelheim International GmbH, priority 2023, published 2024)
Residues, ends and D or L forms follow the SMILES beside them.

What was measured:
human NMUR2 receptor = human NMUR2 receptor (Homo sapiens, UniProt Q9GZQ4); test: Radioligand binding competition assay (RLB), human NMUR2 receptor binding (SPA, [125I]-Neuromedin U-25); design: host or cells: CHO-K1; settings: CHO-K1 hNMUR2 cell membranes, 4 hours at RT
in vivo = test: in vivo; design: species or system NMRI mice; settings: male, NMRI, mouse, iv
[1] = Effect on acute food intake in normal NMRI mice; type: in vivo; settings: male NMRI mice, single subcutaneous dose 100 nmol/kg, normalized to vehicle group
Procedure: Example 9: Pharmacodynamics Effect on Acute Food Intake in Normal NMRI Mice
Male NMRI mice were obtained from Charles River (Charles River, Research Models & Services Germany GmbH) or from JanVier (JanVier Labs, France) at 3 weeks of age. The animals were group housed 4 mice pr. cage under a 12/12 hours dark-light cycle, light off at 3 pm. Room temperature was controlled to 21° C.±1° C., with 60%±20% humidity. Animals had ad libitum access to regular rodent chow (KLIBA Nafag 3430 or Altromin 1324, Brogaarden, Denmark) and tap water. Animals were transferred at 6 weeks of age, 5-7 days before the start of the study to a real-time food intake monitoring system, HM-2 system (MBRose, Denmark), to allow acclimatization to experimental conditions. As the animals were uniquely identified with microchips, each individual animal was identified by its microchip upon entry and exit from the food channel. Randomization of the mice for each study group (n=8-11) was based on body weight measured the day before the start of the study. A vehicle-treated (50 mM acetate buffer pH 7.4 with 3.5% mannitol) group was included in each experiment. Six hours before the start of the night phase animals were fasted. One hour before the dark phase animals were dosed once subcutaneously with test peptide. Food intake was reported hourly for a period of 24 hours. The food intake of the treated groups was normalized (in %) to the average food intake of the group receiving vehicle (table 10). Statistical significance was evaluated using One-way analysis of variance with Bonferroni's multiple comparison test. P<0.05 was considered statistically significant.

human NMUR2 receptor, sequence (Q9GZQ4 whole entry): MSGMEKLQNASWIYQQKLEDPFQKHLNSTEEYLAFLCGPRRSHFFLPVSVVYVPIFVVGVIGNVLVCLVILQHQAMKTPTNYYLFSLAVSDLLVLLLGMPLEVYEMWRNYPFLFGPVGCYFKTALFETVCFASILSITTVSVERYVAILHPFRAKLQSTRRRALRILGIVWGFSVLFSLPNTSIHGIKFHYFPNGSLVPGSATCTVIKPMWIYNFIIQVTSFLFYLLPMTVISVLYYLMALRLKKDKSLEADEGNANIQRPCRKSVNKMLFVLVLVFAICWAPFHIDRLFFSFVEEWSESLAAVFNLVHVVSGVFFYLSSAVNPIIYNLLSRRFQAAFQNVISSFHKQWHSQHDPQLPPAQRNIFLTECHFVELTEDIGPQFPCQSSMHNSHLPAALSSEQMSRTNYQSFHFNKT

SMILES	Ki (human NMUR2 receptor) [nM]	MRT (in vivo) [h]	MRT (in vivo; 30 nmol/kg) [h]	Acute Food Intake 24 h [1] [% vehicle]
CCCC[C@H](NC(=O)[C@H](CC(C)C)N(C)C(=O)[C@H](Cc1ccccc1)NC(=O)[C@H](Cc1ccc(O)cc1)NC(=O)CN1CCN(CCNC(=O)CN(C)C(=O)CN(C)C(=O)CN(C)C(=O)CN(C)C(=O)CN(C)C(=O)CN(C)C(=O)CN(C)C(=O)CN(C)C(=O)CN(C)C(=O)CN(C)C(=O)CN(C)C(=O)CN(C)C(=O)CN(C)C(=O)CN(C)C(=O)CN(C)C(=O)CC[C@H](NC(=O)CC[C@H](NC(=O)CC[C@H](NC(=O)CCCCCCCCCCCCCCCCCCC(=O)O)C(=O)O)C(=O)O)C(=O)O)CC1)C(=O)N[C@@H](CCCN)C(=O)N1CCC[C@H]1C(=O)N[C@@H](CCCNC(=N)N)C(=O)NCC(N)=O [Compound 1, C20DA-gGlu3-Sar15-AEPipAc-Tyr-Phe-NMeLeu-Nle-Orn-Pro-Arg-Gly-NH2] (HELM PEPTIDE1{[O=C(O)CCCCCCCCCCCCCCCCCCC(=O)[*:2]].[gGlu].[gGlu].[gGlu].[Sar].[Sar].[Sar].[Sar].[Sar].[Sar].[Sar].[Sar].[Sar].[Sar].[Sar].[Sar].[Sar].[Sar].[Sar].[O=C(CN1CCN(CCN[*:1])CC1)[*:2]].Y.F.[meL].[Nle].[Orn].P.R.G.[am]}$$$$V2.0)	8.6	38.1	38.1	31
CCCC[C@H](NC(=O)[C@H](CC(C)C)N(C)C(=O)[C@H](Cc1ccccc1)NC(=O)[C@H](Cc1ccc(O)cc1)NC(=O)CN1CCN(CCNC(=O)CN(C)C(=O)CN(C)C(=O)CN(C)C(=O)CN(C)C(=O)CN(C)C(=O)CN(C)C(=O)CN(C)C(=O)CN(C)C(=O)CN(C)C(=O)CN(C)C(=O)CN(C)C(=O)CN(C)C(=O)CN(C)C(=O)CN(C)C(=O)CN(C)C(=O)CC[C@H](NC(=O)CC[C@H](NC(=O)CC[C@H](NC(=O)CCCCCCCCCCCCCCCCCCC(=O)O)C(=O)O)C(=O)O)C(=O)O)CC1)C(=O)N[C@@H](CCN)C(=O)N1CCC[C@H]1C(=O)N[C@@H](CCCNC(=N)N)C(=O)NCC(N)=O [Compound 42, C20DA-gGlu3-Sar15-AEPipAc-Tyr-Phe-NMeLeu-Nle-Dbu-Pro-Arg-Gly-NH2] (HELM PEPTIDE1{[O=C(O)CCCCCCCCCCCCCCCCCCC(=O)[*:2]].[gGlu].[gGlu].[gGlu].[Sar].[Sar].[Sar].[Sar].[Sar].[Sar].[Sar].[Sar].[Sar].[Sar].[Sar].[Sar].[Sar].[Sar].[Sar].[O=C(CN1CCN(CCN[*:1])CC1)[*:2]].Y.F.[meL].[Nle].[Dab].P.R.G.[am]}$$$$V2.0)	23.7		31.2	41
